Common to all, as to test: NCI tumour cell line growth inhibition, 48 h
For assay [1], the system named is OVCAR-4.
Assay [2] concerns 786-0.
For assay [3], the system named is U-251.
Assay [4] deals with EKVX.
In assay [5] the test system is UACC-62.
In assay [6] the test system is HCT-15.
Assay [7] has as its system SK-MEL-5.
In assay [8] the test system is HCC 2998.
For assay [9], the system named is SNB-75.
Assay [10] relates to SF-268.
Assay [11] relates to OVCAR-5.
The test system of assay [12] is SK-OV-3.
Assay [13] has as its system HOP-62.
The subject of assay [14] is SF-295.
Assay [15] has as its system SR.
Assay [16] deals with HL-60.
Assay [17] relates to RXF 393.
The test system of assay [18] is LOX IMVI.

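Following 48 hours of exposure in 96-well plates, responses at five concentrations were used to interpolate endpoints linearly. Abbreviation: GI50, concentration required for 50% inhibition of growth.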 Calls of active or inactive are those of the source. Cut-off read from the data, not from the text of the source: active = GI50 up to about 1.1 µM and inactive = higher.

For `COc1ccc(C=C2C(=O)OC(C)(C)OC2=O)cc1OC`, the GI50 in assay [1] was > 100 µM (inactive); in assay [2] it was > 100 µM (inactive); in assay [3], > 100 µM (inactive); in assay [4], > 100 µM (inactive); in [5], > 100 µM (inactive); in [6], above 100 µM. For the same molecule, the GI50 in [7] is > 100 µM (inactive); in [8] it was > 100 µM (inactive); in assay [9], 80.7 µM (inactive); in assay [10], > 100 µM (inactive); in assay [11] it was > 100 µM (inactive); in assay [12], > 100 µM (inactive). Moreover, the GI50 in [13] and in assay [14] was > 100 µM (inactive) in each case.

With `O=C1CC23CCCCCCCCCCC2(C1)CC(=O)C3` (stereo not given), the GI50 in assay [15] is 19.9 µM (inactive); in [16], 17.4 µM (inactive); in assay [2], 32.6 µM (inactive); in [3], 22.8 µM (inactive); in assay [4], 30.1 µM (inactive); in assay [6], 27.3 µM. For the same molecule, the GI50 in assay [7] is 17.4 µM (inactive); in assay [17] it was 25.4 µM (inactive); in assay [8] it was 32.7 µM (inactive); in assay [10] it was 51.9 µM (inactive); in assay [11] it was 23.2 µM (inactive); in assay [12] it was 16.8 µM (inactive). For the same molecule, the GI50 in assay [14] was 35.3 µM (inactive).

Turning to `Cc1ccc(NC(=O)C(=O)Cc2nc3ccccc3o2)c(C)c1`, the GI50 in assay [1] is > 100 µM (inactive); in assay [2], > 100 µM (inactive); in assay [3], > 100 µM (inactive); in assay [4] it was > 100 µM (inactive); in assay [5], > 100 µM (inactive); in assay [6] it was above 100 µM. In addition, the GI50 in assay [17], in assay [8], in [9], in assay [10], in assay [11] and in assay [12] was > 100 µM (inactive) in each case. In addition, the GI50 in assay [13], in assay [18] and in assay [14] was > 100 µM (inactive) throughout.

With `COc1cc(C(C#N)NNc2nc(C)cc(O)n2)cc(OC)c1OC` (stereo not given), the GI50 in assay [15] is 37.5 µM (inactive); in assay [1], > 100 µM (inactive); in assay [16], > 100 µM (inactive); in assay [2], > 100 µM (inactive); in [3], > 100 µM (inactive); in [5], > 100 µM (inactive). Besides, the GI50 was above 100 µM in assay [6]; > 100 µM (inactive) in [7]; > 100 µM (inactive) in assay [17]; 37.2 µM (inactive) in assay [9]; > 100 µM (inactive) in assay [10]; > 100 µM (inactive) in assay [11]. Further, the GI50 in assay [12], in assay [13], in [18] and in [14] was > 100 µM (inactive) throughout.

On to `COCCNC(=O)C1C(=O)C(=O)N(CCOC)C1=O` (stereo not given), for which the GI50 in [15], in assay [1], in assay [2], in [3], in [4] and in [5] was > 100 µM (inactive) throughout. The GI50 was above 100 µM in assay [6]; > 100 µM (inactive) in assay [7]; > 100 µM (inactive) in assay [17]; > 100 µM (inactive) in assay [8]; > 100 µM (inactive) in assay [9]; > 100 µM (inactive) in assay [10]. The GI50 in [11], in assay [12], in [13], in assay [18] and in [14] was > 100 µM (inactive) throughout.

On to `O=C(CCc1n[nH]c(=S)o1)Nc1cc(Cl)c(Cl)cc1Cl`, for which the GI50 in assay [1] is > 100 µM (inactive); in assay [16] it was 33.3 µM (inactive); in assay [2] it was 22.5 µM (inactive); in [3], 35.2 µM (inactive); in assay [4] it was 36.9 µM (inactive); in assay [5], 21.9 µM (inactive). Besides, the GI50 was 22.2 µM in assay [6]; 50.9 µM (inactive) in assay [7]; > 100 µM (inactive) in [8]; 89.1 µM (inactive) in assay [9]; 26.5 µM (inactive) in [10]; 54.3 µM (inactive) in [11]. In addition, the GI50 was > 100 µM (inactive) in [12], 50.8 µM (inactive) in assay [13] and > 100 µM (inactive) in [14].

Regarding `O=c1/c(=C/c2c(O)ccc3ccccc23)sc2nc3ccccc3n12`, the GI50 in [1], in assay [16], in [2], in assay [3], in [4] and in [5] was > 100 µM (inactive) in each case. Also, the GI50 in assay [6] was above 100 µM; in assay [7], > 100 µM (inactive); in [17], > 100 µM (inactive); in assay [8], > 100 µM (inactive); in assay [9], > 100 µM (inactive); in [10], > 100 µM (inactive). Besides, the GI50 in assay [11], in assay [12], in assay [13], in assay [18] and in [14] was > 100 µM (inactive) throughout.

As for `CCOc1cc(/C=C/C=C/C=C/c2ccc(N(C)C)cc2)[s+]c2ccccc12`, the GI50 in assay [1] is 19.3 µM (inactive); in [16], 1.72 µM (inactive); in assay [2], 22.5 µM (inactive); in assay [3] it was 31.8 µM (inactive); in [4] it was > 100 µM (inactive); in [5] it was 27.8 µM (inactive). Besides, the GI50 was 26.4 µM in assay [6]; 24 µM (inactive) in [7]; 10 µM (inactive) in assay [17]; 48.2 µM (inactive) in assay [8]; 32 µM (inactive) in [9]; 13.5 µM (inactive) in assay [10]. The GI50 in assay [11] was > 100 µM (inactive); in [12], > 100 µM (inactive); in [13], 95.5 µM (inactive); in assay [14] it was 33.8 µM (inactive).

As to `COc1cc2c(cc1O)[C@H](C)C(c1ccccc1OC)O2` (stereo not given in full), the GI50 in assay [1] was 8.32 µM (inactive); in assay [16] it was 2.6 µM (inactive); in [2], 5.61 µM (inactive); in assay [3] it was 2.34 µM (inactive); in assay [4] it was 6.87 µM (inactive); in [5], 3.33 µM (inactive). The GI50 was 3.34 µM in assay [6]; 3.16 µM (inactive) in [7]; 10.9 µM (inactive) in assay [17]; 12.1 µM (inactive) in [8]; 2.49 µM (inactive) in assay [9]; 5.75 µM (inactive) in [10]. Moreover, the GI50 in assay [11] is 75.2 µM (inactive); in assay [12], 3.01 µM (inactive); in assay [18], 4.67 µM (inactive); in [14] it was 3.2 µM (inactive).

Consider `CC(C)C1NC(=O)[C@H](C)OC(=O)[C@@H](C(C)C)NC(=O)[C@@H](C)OC(=O)C(C(C)C)NC(=O)[C@H](C)OC1=O` (stereo not given in full), for which the GI50 is 29.8 µM (inactive) in assay [15]; > 67.1 µM (inactive) in assay [1]; > 100 µM (inactive) in assay [16]; 20.9 µM (inactive) in [2]; > 68.4 µM (inactive) in assay [3]; > 100 µM (inactive) in assay [4]. Further, the GI50 in assay [5] is > 100 µM (inactive); in assay [6] it was 17.5 µM; in assay [7], > 100 µM (inactive); in assay [8] it was > 100 µM (inactive); in assay [9], > 100 µM (inactive); in assay [10], > 100 µM (inactive). For the same molecule, the GI50 in assay [11] is > 100 µM (inactive); in assay [12], > 100 µM (inactive); in assay [13], > 100 µM (inactive); in assay [18], > 49.3 µM (inactive); in assay [14], > 100 µM (inactive).

In the case of `CCOc1ccc([Se][Se]c2ccc(OCC)cc2)cc1`, the GI50 is > 100 µM (inactive) in assay [15]; > 100 µM (inactive) in assay [1]; > 100 µM (inactive) in assay [2]; 26.9 µM (inactive) in [3]; > 100 µM (inactive) in [4]; 95.7 µM (inactive) in [5]. In addition, the GI50 in assay [6] was 82.4 µM; in assay [17], 35.5 µM (inactive); in assay [8] it was > 100 µM (inactive); in assay [9], 96.4 µM (inactive); in assay [10], 70.1 µM (inactive); in assay [11], 18.8 µM (inactive). Besides, the GI50 in [14] was > 100 µM (inactive).

Turning to `CCOC(=O)C(NC(=O)c1nc[nH]c1[N+](=O)[O-])C(C)C` (stereo not given), the GI50 was 61.1 µM (inactive) in [15]; > 100 µM (inactive) in assay [1]; 27.6 µM (inactive) in assay [16]; 71.1 µM (inactive) in [2]; 34.5 µM (inactive) in assay [3]; 94 µM (inactive) in [4]. The GI50 in [5] was > 100 µM (inactive); in assay [6], above 100 µM; in assay [7] it was 17.3 µM (inactive); in [8], 66.4 µM (inactive); in [9], > 100 µM (inactive); in assay [10] it was > 100 µM (inactive). For the same molecule, the GI50 was > 100 µM (inactive) in assay [12], > 100 µM (inactive) in assay [13], > 100 µM (inactive) in [18] and 47.9 µM (inactive) in assay [14].

On to `O=C1CCC2CCc3cccc4oc1c2c34` (stereo not given), for which the GI50 was > 100 µM (inactive) in assay [1]; > 100 µM (inactive) in assay [16]; > 100 µM (inactive) in assay [2]; > 100 µM (inactive) in assay [3]; 74.1 µM (inactive) in assay [4]; > 100 µM (inactive) in assay [5]. For the same molecule, the GI50 is above 100 µM in assay [6]; > 100 µM (inactive) in assay [7]; > 100 µM (inactive) in assay [17]; > 100 µM (inactive) in [8]; > 100 µM (inactive) in assay [9]; > 100 µM (inactive) in assay [12]. Also, the GI50 was > 100 µM (inactive) in assay [13], > 100 µM (inactive) in assay [18] and 10.6 µM (inactive) in assay [14].

Values taken from ChEMBL document CHEMBL1201862, “PubChem BioAssay data set” (2004).
